Key:
[1] = Phase 1/2 trial safety: adverse events, all-cause mortality; type: in vivo, human
Description: Safety was monitored throughout the study by physical examinations and clinical laboratory tests, including hematology, chemistry for liver and renal function, urinalysis, pregnancy tests, pharmacokinetics, epi-genetics, buccal swab, and pharmacogenetic markers. Electrocardiograms were obtained at baseline screening and day 1 of each treatment cycle.
The primary endpoint was overall response, which was a composite of complete response (CR), partial response, marrow complete response (mCR), and hematological improvement. Overall response was assessed by local investigators. Secondary endpoints included the individual components of overall response, time to response, duration of response, overall survival, blood transfusion and platelet transfusion independence at weeks 8 and 16, and safety, including the incidence of adverse events, and all-cause early mortality at 30, 60, and 90 days. Exploratory analyses were done to examine the association between baseline characteristics and overall response.
Treatment-emergent adverse events, which are events that first occurred or worsened after the first dose of study drug until 30 days after the last dose or until the start of an alternative anticancer treatment (whichever occurred first), and all-cause 30-day, 60-day, and 90-day cumulative mortality, were summarized descriptively.

[2] = tested on: relapsed/refractory (r/r) AML; test: Phase 2 study in relapsed/refractory AML: response, duration of response, survival; type: in vivo, human; conditions: for CR response rate, % / CRc (CR + CRp + CRi) response rate, % / CRi response rate, % / CRp response rate, % / CRc, %: r/r AML; for CRc, %: all regimens
Description: (§1) A Phase 2 study of Compound I-1 using different regimens and doses (randomized 5-day regimen cohorts of 60 mg/m^2/d vs 90 mg/m^2/d SC) and a cohort of 10-day regimen in the first 1-4 cycles at 60 mg/m^2/d followed by subsequent cycles of 5-day regimen) was conducted as described above. Response and duration of response were assessed using IWG 2003 criteria: Complete Response (CR), CR with incomplete platelet recovery (CRp), and CR with incomplete count recovery (CRi). CR+CRp+CRi was defined as composite CR (CRc). Overall survival (OS) was assessed using the Kaplan-Meier (KM) method. Response status for each dose/regimen cohort and the overall treated population were assessed with analyses of duration of response and long-term survival.

[3] = Phase 3 trial safety: adverse events, ECG, mortality; type: in vivo
Description: Two co-primary endpoints were used: complete response (CR) rate based on modified International Working Group (IWG) 2003 AML Response Criteria and OS (the number of days from randomization to death). Secondary endpoints included CRc (CR+CR with incomplete blood count recovery [CRi]+CR with incomplete platelet recovery [CRp]) rate, number of days alive and out of the hospital (NDAOH), progression-free survival (PFS), health related quality of life (QOL) by EQ-5D (consisting of the EQ-5D-5L descriptive system and the EQ Visual Analogue Scale [EQ VAS]), duration of CR (the time from first CR to time of relapse), incidence and severity of adverse events (AEs), and 30- and 60-day all-cause mortality.
The incidence and severity of adverse events (AEs) and 30- and 60-day all-cause mortality were summarized with descriptive statistics. No formal statistical testing between the treatment groups was planned for safety assessments.

[4] = Phase 2 study in relapsed/refractory AML: safety; set-up: species or system human; conditions: in vivo
Description: as §1

[5] = 5 Day regimen (60 and 90 mg/m^2), n = 50
[6] = 10 Day regimen (60 mg/m^2), n = 53

Nc1ncn([C@H]2CC(OP(=O)(O)OC[C@H]3O[C@@H](n4cnc5c(=O)[nH]c(N)nc54)CC3O)[C@@H](CO)O2)c(=O)n1 (some centres unmarked) [Compound I-1]
Patients who died from serious adverse events ([1]; all treated): Seven | Drug-related serious adverse event anemia ([1]; human, in vivo): 3% | Drug-related serious adverse event pneumonia ([1]; human, in vivo): 7% | Drug-related serious adverse event thrombocytopenia ([1]; human, in vivo): 3% | 30-day all-cause mortality ([1]; of 102 patients): 1% | 60-day all-cause mortality ([1]; of 102 patients): 4% | 90-day all-cause mortality ([1]; of 102 patients): 9% | Serious adverse events that led to death considered treatment related ([1]; pneumonia with 90 mg/m^2 and septic shock with 60 mg/m^2): two | CR Rate ([2]; 5-day regimen): 8% | CRc rate ([2]; 5-day regimen): 16% | CR Rate ([2]; 10-day regimen): 19% | CRc rate ([2]; 10-day regimen): 30% | 2-year survival rate ([2]; CR): 57% | 2-year survival rate ([2]; CRc patients receiving HCT): 50% | 2-year survival rate ([2]; CRc patients who did not undergo HCT): 60% | 2-year survival rate ([2]; CRp/CRi): 50% | CRc ([2]; early relapse (<6 months from prior treatment)): 22% | CR Composite (CR + CRp + CRi) Duration of Response, median (range) ([2]; in vivo): 7.8 (0.5-30) Months | Complete Response (CR) Duration of Response, median (range) ([2]; in vivo): 7 (1-29.5) Months | Post treatment HCT in responders ([2]; in vivo): 58% | Achieved CRc ([2]; of 19 patients who had prior HCT): 5 patients | Median OS ([2]; patients who achieved CRc (either CR or CRp/CRi)): has not been reached | CRc ([2]; patients who relapsed after prior HCT (19 patients)): 26% | CRc ([2]; patients with poor risk cytogenetics): 19% | CR response rate, % [2, 5]: (6%) | CRc (CR + CRp + CRi) response rate, % [2, 5]: (16%) | CRi response rate, % [2, 5]: (8%) | CRp response rate, % [2, 5]: (2%) | CR response rate, % [2, 6]: (19%) | CRc (CR + CRp + CRi) response rate, % [2, 6]: (30%) | CRi response rate, % [2, 6]: (4%) | CRp response rate, % [2, 6]: (7%) | CRc, % ([2]; subgroup Age (y) <65 (N 63)): (19%) | CRc, % ([2]; subgroup Age (y) >65 (N 40)): (30%) | CRc, % ([2]; subgroup Cytogenetics Adverse (N 42)): (19%) | CRc, % ([2]; subgroup Cytogenetics Diploid (N 21)): (19%) | CRc, % ([2]; subgroup Cytogenetics Others (N 40)): (30%) | CRc, % ([2]; subgroup ECOG PS 0-1 (N 89)): (26%) | CRc, % ([2]; subgroup ECOG PS 2 (N 12)): (7%) | CRc, % ([2]; subgroup Prior HCT No (N 84)): (23%) | CRc, % ([2]; subgroup Prior HCT Yes (N 19)): (26%) | CRc, % ([2]; subgroup Response to Induction CR (N 55)): (15%) | CRc, % ([2]; subgroup Response to Induction Refractory (N 48)): (25%) | CRc, % ([2]; subgroup Time From Last Therapy <6 months (N 82)): (22%) | CRc, % ([2]; subgroup Time From Last Therapy >6 months (N 20)): (30%) | CRc ([2]; refractory patients): 31% | Related AE with an outcome of death, each of: hematophagy histiocytosis, small intestinal hemorrhage, general physical health deterioration, mucormycosis, osteonecrosis ([3]; 1 subject each): 0.2% | Discontinuations due to a related AE that was an infection event ([3]; human, in vivo): 7 subjects | Dose reductions due to AEs ([3]; human, in vivo): 6.0% | Related SAE anemia ([3]; human, in vivo): 1.0% | Related SAE febrile neutropenia ([3]; human, in vivo): 13.7% | Related SAE pneumonia ([3]; human, in vivo): 8.5% | Related SAE sepsis ([3]; human, in vivo): 4.0% | Related SAE septic shock ([3]; human, in vivo): 1.2% | Related SAE thrombocytopenia ([3]; human, in vivo): 1.7% | SAE febrile neutropenia incidence ([3]; human, in vivo): 25.2% | SAE pneumonia incidence ([3]; human, in vivo): 28.4% | SAE sepsis incidence ([3]; human, in vivo): 15.0% | Treatment Discontinuation Before 4 Cycles: Adverse Event ([3]; human, in vivo): 6.4% | Treatment Discontinuation Before 6 Cycles: Adverse Event ([3]; human, in vivo): 7.4% | Treatment delays due to adverse events ([3]; human, in vivo): 48.1% | AE with an outcome of death: febrile neutropenia ([3]; human, in vivo, 60 mg/m^2): 0.2% | AE with an outcome of death: pneumonia ([3]; human, in vivo, 60 mg/m^2): 5.0% | AE with an outcome of death: sepsis ([3]; human, in vivo, 60 mg/m^2): 6.5% | AE with an outcome of death: septic shock ([3]; human, in vivo, 60 mg/m^2): 2.0% | Related AE with an outcome of death: febrile neutropenia ([3]; human, in vivo, 60 mg/m^2): 0.2% | Thirty-day all-cause mortality ([3]; human, in vivo, 60 mg/m^2, 30 day): 11.2% | 60-day mortality ([3]; human, in vivo, 60 mg/m^2, 60 day): 20.9% | Effect on heart rate (ECG) ([3]; in vivo): no effect on heart rate | Effects on ECG parameters ([3]; in vivo): No effects on ECG parameters were observed | Treatment Discontinuation Before 4 Cycles: Death ([3]; n = 408 I-1, n = 407 TC): 17.6% | Treatment Discontinuation Before 6 Cycles: Death ([3]; n = 408 I-1, n = 407 TC): 22.5% | Grade 3 or higher AEs related to the drug [4]: 42% | Related serious AEs leading to death [4]: no related serious AEs leading to death

Source: patent publication US20200352976A1, “HYPOMETHYLATING AGENTS FOR USE IN TREATMENT OF CANCER” (Otsuka Pharmaceutical Co., Ltd, priority 2019, published 2020)
